Results from patent US10344025B2, “GLS1 inhibitors for treating disease” (Board of Regents, The University of Texas System, priority 2014, dated 2019).
Read-outs that look alike come from different tables or passages of the source.

Columns and labels:
[1] = biological target: purified recombinant human GAC (GLS1) (Homo sapiens (Human), UniProt O94925); assay: GLS1 Enzymatic Activity Assay (dual-coupled enzymatic assay, resorufin/Amplex UltraRed readout); assay type: biochemical;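 note: glutamate from GAC coupled via glutamate oxidase and peroxidase to resorufin, read as fluorescence (ex 530, em 590 nm) kinetically or at 20 min, four-parameter logistic IC50 fit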
A549 cells = assay: Proliferation Assay (A549 viability, Cell Titer Fluor, 72 hours); assay type: cell-based
Procedure, shortened: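 Cell Titer Fluor fluorescence after 72 h compound treatment (0.5% DMSO, 37 °C, 5% CO2) of A549 cells plated 24 h earlier at 1000/well. Four-parameter logistic fitting gave IC50.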

Chain of purified recombinant human GAC (GLS1) (O94925 other isoform, or with tags, fused parts or gaps): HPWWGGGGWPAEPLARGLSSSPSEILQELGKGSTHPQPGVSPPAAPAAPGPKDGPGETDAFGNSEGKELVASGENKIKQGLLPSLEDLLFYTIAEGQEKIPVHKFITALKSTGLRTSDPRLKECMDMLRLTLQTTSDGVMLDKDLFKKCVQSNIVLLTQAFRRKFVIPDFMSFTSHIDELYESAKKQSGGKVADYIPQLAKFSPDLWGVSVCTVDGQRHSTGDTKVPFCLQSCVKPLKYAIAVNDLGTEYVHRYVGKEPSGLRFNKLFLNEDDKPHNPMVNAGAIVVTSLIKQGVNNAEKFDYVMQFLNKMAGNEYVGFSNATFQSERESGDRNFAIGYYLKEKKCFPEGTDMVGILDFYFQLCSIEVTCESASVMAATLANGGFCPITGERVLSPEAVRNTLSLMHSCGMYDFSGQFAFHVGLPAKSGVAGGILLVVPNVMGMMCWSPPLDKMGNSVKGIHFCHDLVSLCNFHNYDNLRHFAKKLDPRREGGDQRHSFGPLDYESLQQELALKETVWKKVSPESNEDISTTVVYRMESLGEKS

SMILES | IC50 [1] [nM] | EC50 (A549 cells; Homo sapiens, A549, 72 h) [nM] | EC50 (A549 cells) [nM]
COc1cccc(CNC(=O)c2cn(CCCCn3cc(C(=O)NCc4cc(C(F)(F)F)ccn4)nn3)nn2)c1 [Example 108, 1-[4-(4-{[(3-methoxyphenyl)methyl]carbamoyl}-1H-1,2,3-triazol-1-yl)butyl]-N-{[4-(trifluoromethyl)pyridin-2-yl]methyl}-1H-1,2,3-triazole-4-carboxamide] | < 100 | 100 to 500 | 
CC(NC(=O)c1cn(CCCCn2cc(C(=O)NCc3cc(C(F)(F)F)ccn3)nn2)nn1)c1cccc(OC(F)(F)F)c1 (centres unmarked) [Example 109, 1-{4-[4-({1-[3-(trifluoromethoxy)phenyl]ethyl}carbamoyl)-1H-1,2,3-triazol-1-yl]butyl}-N-{[4-(trifluoromethyl)pyridin-2-yl]methyl}-1H-1,2,3-triazole-4-carboxamide] | < 100 | 100 to 500 | 
CC(C)(C)OC(=O)NCc1cccc(CNC(=O)c2cn(CCCCn3cc(C(=O)NCc4cc(C(F)(F)F)ccn4)nn3)nn2)c1 [Example 110, tert-butyl N-[(3-{[(1-{4-[4-({[4-(trifluoromethyl)pyridin-2-yl]methyl}carbamoyl)-1H-1,2,3-triazol-1-yl]butyl}-1H-1,2,3-triazol-4-yl)formamido]methyl}phenyl)methyl]carbamate] | < 100 | < 100 | 
O=C(NCc1cccc(Cl)c1)c1cn(CCCCn2cc(C(=O)NCc3cc(C(F)(F)F)ccn3)nn2)nn1 [Example 111, 1-[4-(4-{[(3-chlorophenyl)methyl]carbamoyl}-1H-1,2,3-triazol-1-yl)butyl]-N-{[4-(trifluoromethyl)pyridin-2-yl]methyl}-1H-1,2,3-triazole-4-carboxamide] | < 100 | < 100 | 
O=C(NCc1cccc(F)c1)c1cn(CCCCn2cc(C(=O)NCc3cc(C(F)(F)F)ccn3)nn2)nn1 [Example 112, 1-[4-(4-{[(3-fluorophenyl)methyl]carbamoyl}-1H-1,2,3-triazol-1-yl)butyl]-N-{[4-(trifluoromethyl)pyridin-2-yl]methyl}-1H-1,2,3-triazole-4-carboxamide] | 100 to 500 | 100 to 500 | 
O=C(NCc1cccc(CO)c1)c1cn(CCCCn2cc(C(=O)NCc3cc(C(F)(F)F)ccn3)nn2)nn1 [Example 113, 1-{4-[4-({[3-(hydroxymethyl)phenyl]methyl}carbamoyl)-1H-1,2,3-triazol-1-yl]butyl}-N-{[4-(trifluoromethyl)pyridin-2-yl]methyl}-1H-1,2,3-triazole-4-carboxamide] | < 100 | 500 to 5000 | 
O=C(NCc1cc(C(F)(F)F)ccn1)c1cn(CCCCn2cc(C(=O)NCC3CCCCO3)nn2)nn1 (centres unmarked) [Example 114] | 500 to 5000 | 500 to 5000 | 
O=C(NCc1cccc(OC(F)(F)F)c1)c1cn(CCCCn2cc(C(=O)NCC3CC4CCC3O4)nn2)nn1 (centres unmarked) [Example 115, N-{7-oxabicyclo[2.2.1]heptan-2-ylmethyl}-1-{4-[4-({[3-(trifluoromethoxy)phenyl]methyl}carbamoyl)-1H-1,2,3-triazol-1-yl]butyl}-1H-1,2,3-triazole-4-carboxamide] | 500 to 5000 |  | 500 to 5000
O=C(NCc1cccc(OC(F)(F)F)c1)c1cn(CCCCn2cc(C(=O)NCC3CC4CCC3O4)nn2)nn1 (centres unmarked) [Example 116, N-{7-oxabicyclo[2.2.1]heptan-2-ylmethyl}-1-{4-[4-({[3-(trifluoromethoxy)phenyl]methyl}carbamoyl)-1H-1,2,3-triazol-1-yl]butyl}-1H-1,2,3-triazole-4-carboxamide] | < 100 |  | 100 to 500
O=C(NCc1cccc(OC(F)(F)F)c1)c1cn(CCCCn2cc(C(=O)NCC3CCCOC3)nn2)nn1 (centres unmarked) [Example 117, N-(oxan-3-ylmethyl)-1-{4-[4-({[3-(trifluoromethoxy)phenyl]methyl}carbamoyl)-1H-1,2,3-triazol-1-yl]butyl}-1H-1,2,3-triazole-4-carboxamide] | 100 to 500 | 100 to 500 | 
O=C(NCc1cccc(OC(F)(F)F)c1)c1cn(CCCCn2cc(C(=O)NCC3CCCCO3)nn2)nn1 (centres unmarked) [Example 118, N-(oxan-2-ylmethyl)-1-{4-[4-({[3-(trifluoromethoxy)phenyl]methyl}carbamoyl)-1H-1,2,3-triazol-1-yl]butyl}-1H-1,2,3-triazole-4-carboxamide] | 100 to 500 | 100 to 500 | 
O=C(NCc1cccc(C(F)(F)F)c1)c1cn(CCCCn2cc(C(=O)NCC3CCCOC3)nn2)nn1 (centres unmarked) [Example 119, N-(oxan-3-ylmethyl)-1-{4-[4-({[3-(trifluoromethyl)phenyl]methyl}carbamoyl)-1H-1,2,3-triazol-1-yl]butyl}-1H-1,2,3-triazole-4-carboxamide] | 100 to 500 | 100 to 500 | 

Results, then the compound that gave them:

IC50 [1] [nM] | EC50 (A549 cells; Homo sapiens, A549, 72 h) [nM] | EC50 (A549 cells) [nM] | SMILES
100 to 500 | 500 to 5000 |  | O=C(NCc1cccc(C(F)(F)F)c1)c1cn(CCCCn2cc(C(=O)NCC3CCOCC3)nn2)nn1 [Example 120, N-(oxan-4-ylmethyl)-1-{4-[4-({[3-(trifluoromethyl)phenyl]methyl}carbamoyl)-1H-1,2,3-triazol-1-yl]butyl}-1H-1,2,3-triazole-4-carboxamide]
100 to 500 | 100 to 500 |  | O=C(NCc1cccc(C(F)(F)F)c1)c1cn(CCCCn2cc(C(=O)NCC3CCCCO3)nn2)nn1 (centres unmarked) [Example 121, N-(oxan-2-ylmethyl)-1-{4-[4-({[3-(trifluoromethyl)phenyl]methyl}carbamoyl)-1H-1,2,3-triazol-1-yl]butyl}-1H-1,2,3-triazole-4-carboxamide]
< 100 | < 100 |  | O=C(NCc1cccc(OC(F)(F)F)c1)c1cn(CCCCn2cc(C(=O)NCc3ccnc(C(F)(F)F)c3)nn2)nn1 [Example 122, 1-{4-[4-({[3-(trifluoromethoxy)phenyl]methyl}carbamoyl)-1H-1,2,3-triazol-1-yl]butyl}-N-{[2-(trifluoromethyl)pyridin-4-yl]methyl}-1H-1,2,3-triazole-4-carboxamide]
< 100 | 100 to 500 |  | CC(C)(O)c1ccc(CNC(=O)c2cn(CCCCn3cc(C(=O)NCc4cccc(C5CC5)c4)nn3)nn2)cn1 [Example 123, N-[(3-cyclopropylphenyl)methyl]-1-{4-[4-({[6-(2-hydroxypropan-2-yl)pyridin-3-yl]methyl}carbamoyl)-1H-1,2,3-triazol-1-yl]butyl}-1H-1,2,3-triazole-4-carboxamide]
< 100 | < 100 |  | O=C(NCc1cccc(N2CCCC2)c1)c1cn(CCCCn2cc(C(=O)NCc3cc(C(F)(F)F)ccn3)nn2)nn1 [Example 124, 1-{4-[4-({[3-(pyrrolidin-1-yl)phenyl]methyl}carbamoyl)-1H-1,2,3-triazol-1-yl]butyl}-N-{[4-(trifluoromethyl)pyridin-2-yl]methyl}-1H-1,2,3-triazole-4-carboxamide]
< 100 | 100 to 500 |  | COCCOc1cccc(CNC(=O)c2cn(CCCCn3cc(C(=O)NCc4cc(C(F)(F)F)ccn4)nn3)nn2)c1 [Example 125, 1-{4-[4-({[3-(2-methoxyethoxy)phenyl]methyl}carbamoyl)-1H-1,2,3-triazol-1-yl]butyl}-N-{[4-(trifluoromethyl)pyridin-2-yl]methyl}-1H-1,2,3-triazole-4-carboxamide]
100 to 500 | 100 to 500 |  | O=C(NCc1cccc(OC(F)(F)F)c1)c1cn(CCCCn2cc(C(=O)NCc3cnccn3)nn2)nn1 [Example 126, N-(pyrazin-2-ylmethyl)-1-{4-[4-({[3-(trifluoromethoxy)phenyl]methyl}carbamoyl)-1H-1,2,3-triazol-1-yl]butyl}-1H-1,2,3-triazole-4-carboxamide]
100 to 500 | 500 to 5000 |  | O=C(NCc1ccnnc1)c1cn(CCCCn2cc(C(=O)NCc3cccc(OC(F)(F)F)c3)nn2)nn1 [Example 127, 1-(4-{4-[(pyridazin-4-ylmethyl)carbamoyl]-1H-1,2,3-triazol-1-yl}butyl)-N-{[3-(trifluoromethoxy)phenyl]methyl}-1H-1,2,3-triazole-4-carboxamide]
< 100 | < 100 |  | O=C(NCc1cccc(C2CC2)c1)c1cn(CCCCn2cc(C(=O)NCc3cc(C4CC4)ccn3)nn2)nn1 [Example 128, N-[(3-cyclopropylphenyl)methyl]-1-[4-(4-{[(4-cyclopropylpyridin-2-yl)methyl]carbamoyl}-1H-1,2,3-triazol-1-yl)butyl]-1H-1,2,3-triazole-4-carboxamide]
< 100 | < 100 |  | O=C(NCc1cccc(C2CC2)c1)c1cn(CCC(F)Cn2cc(C(=O)NCc3cc(C4CC4)ccn3)nn2)nn1 (centres unmarked) [Example 129, N-[(3-cyclopropylphenyl)methyl]-1-[4-(4-{[(4-cyclopropylpyridin-2-yl)methyl]carbamoyl}-1H-1,2,3-triazol-1-yl)-3-fluorobutyl]-1H-1,2,3-triazole-4-carboxamide]
100 to 500 | 100 to 500 |  | O=C(NCc1cc(C(F)(F)F)ccn1)c1cn(CC(F)CCn2cc(C(=O)N[C@H](CO)c3ccccc3)nn2)nn1 (stereo partly drawn) [Example 130, 1-[2-fluoro-4-(4-{[(1S)-2-hydroxy-1-phenylethyl]carbamoyl}-1H-1,2,3-triazol-1-yl)butyl]-N-1{[4-(trifluoromethyl)pyridin-2-yl]methyl}-1H-1,2,3-triazole-4-carboxamide]
100 to 500 | 100 to 500 |  | C[C@@H](NC(=O)c1cn(CCC(F)Cn2cc(C(=O)NCc3cc(C(F)(F)F)ccn3)nn2)nn1)c1ccccc1 (stereo partly drawn) [Example 131, 1-[2-fluoro-4-(4-{[(1R)-1-phenylethyl]carbamoyl}-1H-1,2,3-triazol-1-yl)butyl]-N-{[4-(trifluoromethyl)pyridin-2-yl]methyl}-1H-1,2,3-triazole-4-carboxamide]
< 100 | < 100 |  | O=C(NCc1cccc(OC(F)F)c1)c1cn(CCCCn2cc(C(=O)NCc3cc(C(F)(F)F)ccn3)nn2)nn1 [Example 132, {4-[4-({[3-(difluoromethoxy)phenyl]methyl}carbamoyl)-1H-1,2,3-triazol-1-yl]butyl}-N-{[4-(trifluoromethyl)pyridin-2-yl]methyl}-1H-1,2,3-triazole-4-carboxamide]
